Test results from PubChem BioAssay (NCI).
“And” between values parts separate entries of the source, which are not always exact repeats. Equal entries are not always repeated.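 Values below derive from 48-hour exposures of cells grown in 96-well plates, with endpoints linearly interpolated between the two concentrations bracketing the appropriate inhibition level. GI50 is the concentration that inhibits growth by half. TGI is the concentration that stops growth completely.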

What follows are compounds tested on SK-MEL-28 melanoma (assay: DTP human tumour cell line panel, 48 h).

Structure (SMILES)	TGI [µM]	GI50 [µM]
COc1ccc([N+](=O)[O-])c2c(NCCCN(C)C)c3ccccc3nc12	13.4	–
CC(=O)OCC1OC(N2C(=O)C(=O)c3cc(C)ccc32)C(OC(C)=O)C(OC(C)=O)C1OC(C)=O (stereo not given)	91.8	–
O=C1c2ccccc2-c2cccc3ccc(Cc4ccc5ccccc5c4)c1c23	> 100	–
Cc1cc(C)c([O-])c(CN(C)CCN(C)Cc2cc(C)cc(C)c2[O-])c1.O=C([O-])c1cccc(C(=O)[O-])n1.[Ti+4]	8.37	2.42
CCOC(=O)C(Cc1c[nH]c2ccc(N)cc12)(NC(C)=O)C(=O)OCC	> 1000	> 1000
COc1cc(Cl)c2c3c(c(C(C)=O)oc13)CCC2	> 100	–
Nc1ccc(N(S(=O)(=O)c2ccccc2)S(=O)(=O)c2ccccc2)c(Cl)c1	> 100	–
CCCCc1c2c(nc3c1CCC/C3=C\c1ccccc1)C(=O)CCC2	41.8	–
COc1ccc([N+]2=NC(c3ccc([N+](=O)[O-])cc3)=NN(c3ccccc3)C2)cc1	> 100	–
NC(=O)C(=Cc1ccc(C(O)P(=O)(O)O)cc1)C(N)=O (stereo not given)	> 100	–
CSc1nc(C)c2c(n1)SCC2	> 10	–
CCC1(CC)C(=O)OC(=O)C1(CC)CC	> 100	–
CC(C)(C#N)c1cc(Cn2cncn2)cc(C(C)(C)C#N)c1	> 10000	> 10000
C=CCC(N[C@H](CO)c1ccccc1)c1ccc2ccccc2n1 (stereo not given in full)	> 100	> 100
O=C(Nc1cc(Cl)c(Cl)cc1Cl)C(=O)C1C=CCS1(=O)=O (stereo not given)	> 100	–
CCNC(=O)CCN(C(=O)O)S(=O)(=O)c1ccc(NC(=O)c2ccccc2)cc1	> 100	–
O=C(/C=C/c1ccc([N+](=O)[O-])o1)N1CCN(Cc2ccccc2)CC1	16.9	–
CC1C[C@@]2(c3ccccc3)C(=O)CCC[C@H]2N1 (stereo not given in full)	> 100	–
O=[N+]([O-])c1cccc(/C=N\NS(=O)(=O)c2ccc(Cl)cc2)c1O	> 100	–
CC(C)c1ccc(C(=O)Nc2nc3ccc(O)cc3s2)cc1	> 100	0.628
CC1=C(C(=O)Nc2ccccc2C)C(c2ccc(Cl)c(Cl)c2)C(C(=O)Nc2ccccc2C)=C(C)N1	71.1	–
CCCCOC(=O)NC(=O)c1cn(CCCOC(=O)CCCCCCCCC(=O)OCCCn2cc(C(=O)NC(=O)OCCCC)c(=O)[nH]c2=O)c(=O)[nH]c1=O	> 100	–
CCN(CC)CCC(=O)NC1c2ccc(Cl)cc2Oc2c(C)cccc21 (stereo not given)	27.9	–

Each compound was assayed on SK-OV-3 ovarian (assay: DTP human tumour cell line panel, 48 h).

Structure (SMILES)	GI50 [µM]	TGI
COc1cc(/C=C/C(=O)CC(=O)/C=C/c2cc(OC)c(OC)c(OC)c2)cc(OC)c1OC	12	67.6 µM
c1ccc2c(c1)CCC/C2=N\OCC1CO1 (stereo not given)	–	> 100 µM
COC(=O)C1C(C(=O)OC)C2(OC)c3ccccc3-c3ccccc3C12 (stereo not given)	–	> 100 µM
O=C1OC(CC(=O)c2ccc(Cl)c(Cl)c2)C(Cl)=C1Cl (stereo not given)	–	> 100 µM
CC(=O)c1cccc(N2COC(C)(C)c3nc4ccccc4n3C2)c1	–	> 100 µM
O=[N+]([O-])c1cccc(C2N3CCCCC3[C@@H]3c4[nH]c5ccccc5c4CCN23)c1 (stereo not given in full)	–	52.1 µM
O=[N+]([O-])c1cc(Cl)c(Cl)c([N+](=O)[O-])c1Cl	3.88	13.4 µM
Cc1c[nH]c2c(O)cc3c(c12)[C@H](CCl)CN3C(=O)c1cc2cc(NC(=O)Nc3ccc4[nH]c(C(=O)N5C[C@@H](CCl)c6c5cc(O)c5[nH]cc(C)c65)cc4c3)ccc2[nH]1	–	26.7 nM and > 100 µM and 8.88 µg/mL
CCOC(=O)NC(=O)c1cn(CC(=O)NCC(=O)NCC(=O)NCCCN2CCN(CCCNC(=O)CNC(=O)CNC(=O)Cn3cc(C(=O)NC(=O)OCC)c(=O)[nH]c3=O)CC2)c(=O)[nH]c1=O	–	> 100 µM
O=S(=O)(N/N=C/c1ccc(/C=N/NS(=O)(=O)c2ccccc2)cc1)c1ccccc1	–	> 100 µM
CC[C@@H]1OC2(C)CC(S(=O)(=O)c3ccccc3O)CC1O2 (stereo not given in full)	–	> 100 µM
CCOC(=O)C(N)C[S][Sn]([CH3])([CH3])[Cl] (stereo not given)	> 100	> 100 µM
COc1ccc([N+](=O)[O-])c2c(NCCCN(C)C)c3ccccc3nc12	–	2.38 µM
CC(=O)OCC1OC(N2C(=O)C(=O)c3cc(C)ccc32)C(OC(C)=O)C(OC(C)=O)C1OC(C)=O (stereo not given)	–	> 100 µM
Cc1cc(C)c([O-])c(CN(C)CCN(C)Cc2cc(C)cc(C)c2[O-])c1.O=C([O-])c1cccc(C(=O)[O-])n1.[Ti+4]	3.54	> 100 µM
CCOC(=O)C(Cc1c[nH]c2ccc(N)cc12)(NC(C)=O)C(=O)OCC	> 1000	> 1000 µM
COc1cc(Cl)c2c3c(c(C(C)=O)oc13)CCC2	–	> 100 µM

Structure (SMILES)	GI50 [µM]	TGI
CCCCc1c2c(nc3c1CCC/C3=C\c1ccccc1)C(=O)CCC2	–	67.2 µM
C=CC1(C(=O)O)CCC(C(C)(C)C)CC1 (stereo not given)	–	> 100 µM
NC(=O)C(=Cc1ccc(C(O)P(=O)(O)O)cc1)C(N)=O (stereo not given)	–	> 100 µM
CSc1nc(C)c2c(n1)SCC2	–	> 10 µM
CCC1(CC)C(=O)OC(=O)C1(CC)CC	–	> 100 µM
CC(C)(C#N)c1cc(Cn2cncn2)cc(C(C)(C)C#N)c1	> 10000	> 10000 µM
C=CCC(N[C@H](CO)c1ccccc1)c1ccc2ccccc2n1 (stereo not given in full)	> 100	> 100 µM
O=C(Nc1cc(Cl)c(Cl)cc1Cl)C(=O)C1C=CCS1(=O)=O (stereo not given)	–	> 100 µM
CCNC(=O)CCN(C(=O)O)S(=O)(=O)c1ccc(NC(=O)c2ccccc2)cc1	–	> 100 µM
O=C(/C=C/c1ccc([N+](=O)[O-])o1)N1CCN(Cc2ccccc2)CC1	–	> 100 µM
CC1C[C@@]2(c3ccccc3)C(=O)CCC[C@H]2N1 (stereo not given in full)	–	> 100 µM
O=[N+]([O-])c1cccc(/C=N\NS(=O)(=O)c2ccc(Cl)cc2)c1O	–	> 100 µM
CC1=C(C(=O)Nc2ccccc2C)C(c2ccc(Cl)c(Cl)c2)C(C(=O)Nc2ccccc2C)=C(C)N1	–	81.4 µM
CCCCOC(=O)NC(=O)c1cn(CCCOC(=O)CCCCCCCCC(=O)OCCCn2cc(C(=O)NC(=O)OCCCC)c(=O)[nH]c2=O)c(=O)[nH]c1=O	–	> 100 µM
Cc1[nH]c2ccccc2c1C1Cc2ccccc2N1C(=O)/C=C\C(=O)O (stereo not given)	–	> 100 µM
CCN(CC)CCC(=O)NC1c2ccc(Cl)cc2Oc2c(C)cccc21 (stereo not given)	–	31.8 µM

These compounds were tested on SN12C renal (assay: DTP human tumour cell line panel, 48 h).

Structure (SMILES)	GI50 [µM]	TGI [µM]
COc1cc(/C=C/C(=O)CC(=O)/C=C/c2cc(OC)c(OC)c(OC)c2)cc(OC)c1OC	3.59	37
c1ccc2c(c1)CCC/C2=N\OCC1CO1 (stereo not given)	–	> 100
CC/C(C)=C1\CCC(CN2CCOCC2)C1=O (stereo not given)	–	21.7
COC(=O)C1C(C(=O)OC)C2(OC)c3ccccc3-c3ccccc3C12 (stereo not given)	–	> 100
O=C1OC(CC(=O)c2ccc(Cl)c(Cl)c2)C(Cl)=C1Cl (stereo not given)	–	> 100
CC(=O)c1cccc(N2COC(C)(C)c3nc4ccccc4n3C2)c1	–	> 100
O=[N+]([O-])c1cccc(C2N3CCCCC3[C@@H]3c4[nH]c5ccccc5c4CCN23)c1 (stereo not given in full)	–	27.6
CCOC(=O)NC(=O)c1cn(CC(=O)NCC(=O)NCC(=O)NCCCN2CCN(CCCNC(=O)CNC(=O)CNC(=O)Cn3cc(C(=O)NC(=O)OCC)c(=O)[nH]c3=O)CC2)c(=O)[nH]c1=O	–	> 100
O=S(=O)(N/N=C/c1ccc(/C=N/NS(=O)(=O)c2ccccc2)cc1)c1ccccc1	–	> 100
CC[C@@H]1OC2(C)CC(S(=O)(=O)c3ccccc3O)CC1O2 (stereo not given in full)	–	> 100
CCOC(=O)C(N)C[S][Sn]([CH3])([CH3])[Cl] (stereo not given)	> 100	> 100
NNC(=O)/C(=C/c1ccc(Cl)c(Cl)c1)NC(=O)c1ccccc1	–	> 100
COc1ccc([N+](=O)[O-])c2c(NCCCN(C)C)c3ccccc3nc12	–	1.43
CC(=O)OCC1OC(N2C(=O)C(=O)c3cc(C)ccc32)C(OC(C)=O)C(OC(C)=O)C1OC(C)=O (stereo not given)	–	> 100
O=C1c2ccccc2-c2cccc3ccc(Cc4ccc5ccccc5c4)c1c23	–	> 100
Cc1cc(C)c([O-])c(CN(C)CCN(C)Cc2cc(C)cc(C)c2[O-])c1.O=C([O-])c1cccc(C(=O)[O-])n1.[Ti+4]	3.69	> 100
CCOC(=O)C(Cc1c[nH]c2ccc(N)cc12)(NC(C)=O)C(=O)OCC	> 1000	> 1000
COc1cc(Cl)c2c3c(c(C(C)=O)oc13)CCC2	–	> 100
Nc1ccc(N(S(=O)(=O)c2ccccc2)S(=O)(=O)c2ccccc2)c(Cl)c1	–	> 100
CCCCc1c2c(nc3c1CCC/C3=C\c1ccccc1)C(=O)CCC2	–	47.4
COc1ccc([N+]2=NC(c3ccc([N+](=O)[O-])cc3)=NN(c3ccccc3)C2)cc1	–	> 100
C=CC1(C(=O)O)CCC(C(C)(C)C)CC1 (stereo not given)	–	> 100
NC(=O)C(=Cc1ccc(C(O)P(=O)(O)O)cc1)C(N)=O (stereo not given)	–	> 100
CSc1nc(C)c2c(n1)SCC2	–	> 10
CC(C)(C#N)c1cc(Cn2cncn2)cc(C(C)(C)C#N)c1	> 10000	> 10000
C=CCC(N[C@H](CO)c1ccccc1)c1ccc2ccccc2n1 (stereo not given in full)	> 100	> 100
